Data on 28 molecules can be found in publication PMC10610289, “Novel Baicalein-Derived Inhibitors of Plasmodium falciparum” (Pathogens, 2023).

As usually defined, the IC50 is the point on the concentration scale where inhibition reaches its midpoint.

Each structure is given as a SMILES string. Read-outs that look alike come from different tables or passages of the source.

One series concerns Dd2 (wt). The series is described as follows: Cross-resistance panel, Dd2 wt. The note with it: strain Dd2 wt. The series is classed as cell-based, Plasmodium falciparum. The procedure: (§1) Parasite lines used in the study were P. falciparum 3D7 (Pf3D7 Chloroquine-sensitive) and Plasmodium falciparum K1 (PfK1 Chloroquine-resistant) sourced from the Malaria Research and Reference Reagent Resource Center (MR4), ATCC, Manassas, VA, USA. FNDR-10132 was tested against a cross-resistance panel at Swiss TPH, Allschwil, Switzerland.

Series [1] relates to Dd2 DDD107498 (PfeEF2 Y186N). The experiment in a line: Cross-resistance panel, Dd2 DDD107498. In kind it is cell-based, Plasmodium falciparum. How it is done: as §1
In a further series the test system is Dd2 DSM265 (Pfdhodh). The experiment in a line: Cross-resistance panel, Dd2 DSM265. In kind it is cell-based, Plasmodium falciparum. How it is done:
as §1

Series [2] relates to Dd2 ELQ300 (PfcytB Ile22Leu). The series is described as follows: Cross-resistance panel, Dd2 ELQ300. In kind it is cell-based, Plasmodium falciparum. How it is done: as §1
For series [3], the system named is Plasmodium falciparum 3D7 (chloroquine-sensitive). The series is described as follows: Antimalarial assay (IC50 determination), asexual blood stage, SYBR green. In kind it is cell-based. The note with it: for antimalarial activity (in words): P. falciparum 3D7, highest tested concentration 25 µM; for IC50: P. falciparum 3D7, 72 h exposure, read-out: IC50. How it is done:
as §1
As per the modified protocol stated by Trager and Jensen, 1976, Plasmodium falciparum parasite lines (Pf3D7 and PfK1) were cultured. Plasmodium strains were maintained in RPMI-1640 medium at 3–5% hematocrit supplemented with 0.2% w/v glucose, 0.5% w/v AlbuMaxII, 0.2% w/v NaHCO3, and 30 μg/mL gentamycin, and, additionally, 15 μM hypoxanthine was added and incubated at 37 °C with 5% O2, 5% CO2, and 90% N2. After 24 h, the medium was changed. After attaining high parasitemia (6–8% mature stage parasite), the culture was sub-passaged with fresh human RBCs.
All tested compounds were dissolved in a DMSO solvent and a prepared stock solution of 10 mM. The reference drug, Chloroquine diphosphate, was dissolved in CRPMI. Working solutions were made from stock solution after diluting in a CRPMI medium during the experiment. The maximum concentration of DMSO used in this study was <1%. It had no parasiticidal effect.
The P. falciparum (0.8–1% parasitemia and 1% hematocrit) synchronous culture was exposed for 72 h (at 37 °C, 5% O2, 5% CO2, and 90% N2) to the serially diluted compound in 96-well plates. A total of 100 µL of RBCs lytic buffer (5 mM EDTA, 20 mM Tris pH 7.5, 0.08% Triton X-100, and 0.008% Saponin) containing the SYBR green 1-X final concentration was distributed to each well and incubated for one hour at room temp in the dark. The plates were read under a fluorescence reader at an excitation of 485 ± 20 nm and emission of 535 ± 25 nm. The IC50 values were calculated based on the DNA content of the parasite relative to its control. An inhibitory concentration of 50% (IC50) was determined using the MS-EXEL template.

Series [4] can be described thus: Microsomal stability assay. In kind it is in vitro ADME, mouse. The following applies: at 60 min, 1 µM, ß-NADPH, 37 °C. How it is done:
Dipotassium hydrogen phosphate, Potassium dihydrogen phosphate, and formic acid were obtained from Merck, Rahway, NJ, USA. Methanol–acetonitrile was procured from Biosolve Chimie, Dieuze, France. Mouse liver microsomes, 20 mg/mL, were received from a third-party vendor in India. Imipramine HCl (catalog no. I0971) and Carbamazepine (catalog no. O0363) were procured from TCI, Gurugram, India. ß-NADPH (product code-99197) was procured from Sisco Research Laboratories, Mumbai, India.
The in vitro metabolic stability was determined in mouse liver microsomes. To prepare a mouse liver microsomes (MLM) homogenate, 100 µL of microsomes was resuspended in 100 mM phosphate buffer (0.607 g K2HPO4 and 0.212 g KH2PO4 dissolved in 50 mL of de-ionized water), achieving a working concentration of 0.625 mg/mL. Positive control (Imipramine) and test compounds (FNDR-10132, 10136, 10139, and 10999) were spiked individually into the MLM homogenate at a final concentration of 1 µm. To pre-incubate, they were placed in a water bath at 37 °C for 5 min. At least 30 µL was collected in triplicates (0 min samples), and the reaction was quenched using 90 µL of acetonitrile, which contained 500 ng/mL of Carbamazepine as an internal standard. Nicotinamide Adenine Dinucleotide Phosphate (NADPH) in phosphate buffer was added to the remaining MLM at a 1 mM final concentration and further incubated at 37 °C. At the indicated time intervals, 30 µL aliquots were sampled in triplicates, and the reaction was quenched with acetonitrile containing Carbamazepine as the internal standard. The samples were centrifugated for 10 min at 13,000 rpm, and the supernatant was separated for further analysis.
The analytical method for microsomal stability and protein binding assay is as follows: Chromatographic elution was achieved following isocratic flow on an X-Terra MS C18 50 × 4.6 mm, 2.5 µm, Waters, USA, maintained at 40 °C. The mobile phase contained aqueous 0.1% formic acid in water in solvent A and acetonitrile acidified with 0.1% formic acid in solvent B delivered at 0.300 mL/min. The flow was 15% from solvent A and 85% from solvent B for 4.5 min. A total of 7 μL of the sample was injected for the assay. […] Detection was performed through multiple reaction monitoring (MRM). The ion transitions are as follows: Imipramine, FNDR-10132, FNDR-10136, FNDR-10139, FNDR-10999, and IS at m/z 281.1→86.0, 355.2→115.1, 354.0→298.0, 350.0→186.1, 349→305.2, and m/z 237.0→194.0, respectively. An optimized cone voltage and collision energy were used to ionize the compounds. The MS parameters follow as follows: cone gas flow 50 (L/h); ion source temperature 150 °C; desolvation gas flow 900 (L/h); desolvation temperature 400 °C; and collision gas flow 0.10 (mL/min).

Series [5] deals with Dd2 GNF156 (Pfcarl Ile1139Lys). The series is described as follows: Cross-resistance panel, Dd2 GNF156. In kind it is cell-based, Plasmodium falciparum. The procedure:
as §1

In series [6] the test system is Dd2 390048 (Pfpi4k S743T). The series is described as follows: Cross-resistance panel, Dd2 390048. In kind it is cell-based, Plasmodium falciparum. How it is done: as §1
Where [7] appears, read: Plasmodium falciparum, 3D7, 72 h.

Take `O=C(NCCN1CCCC1)c1cc(-c2ccc(CN3CCOCC3)cc2)nc2ccc(F)cc12` [DDD107498, reference compound]: the half-maximal inhibitory concentration (IC50) in the series with Dd2 (wt) (Plasmodium falciparum) came out at 0.257 nM; in series [1] (Plasmodium falciparum, DD2), 1860 nM. For the same molecule, the “Fold shift IC50 rel. Dd2” value with Dd2 (wt) was determined as 1.0; in series [1] (strain Dd2 DDD107498), 7247.
For the molecule `Cc1cc(Nc2ccc(S(F)(F)(F)(F)F)cc2)n2nc(C(C)(F)F)nc2n1` [DSM265, reference compound], the IC50 was found to be 150 nM with Dd2 DSM265 (Pfdhodh) (Plasmodium falciparum) and 6.23 nM in the series with Dd2 (wt) (Plasmodium falciparum). Also, the “Fold shift IC50 rel. Dd2” value was found to be 24 with Dd2 DSM265 (Pfdhodh) (strain Dd2 DSM265) and 1.0 in the series with Dd2 (wt).
As for `COc1cc2[nH]c(C)c(-c3ccc(Oc4ccc(OC(F)(F)F)cc4)cc3)c(=O)c2cc1Cl` [ELQ300, reference compound], the “Fold shift IC50 rel. Dd2” value with Dd2 (wt) is listed as 1.0; in series [2] (strain Dd2 ELQ300), 9.7. Further, the IC50 in the series on Dd2 (wt) came out at 6.14 nM; in series [2] (strain Dd2 ELQ300, PfcytB Ile22Leu, read-out: IC50), 59.7 nM.
As for `O=C(O)c1ccc2oc(-c3ccccc3)cc(=O)c2c1` [FNDR-10130], the “antimalarial activity (in words)” value in series [3] is on record as “no activity”. Also, the IC50 in series [3] (setting [7]) was over 25000 nM.
With `O=c1cc(-c2ccc(-c3ccccc3)cc2)oc2cc(O)c(O)c(O)c12` [FNDR-10131], the IC50 in series [3] (setting [7]) was found to be 220 nM.
Same read-out and setting: for `O=c1cc(-c2ccc(N3CCOCC3)cc2)oc2cc(O)c(O)c(O)c12` [FNDR-10133] the value was 1290 nM.
With `O=c1cc(-c2ccc(N3CCCCC3)cc2)oc2cc(O)c(O)c(O)c12` [FNDR-10136], the “Microsomal Stability (Mouse)” value in series [4] is reported as about 19.05 ± 1.26%. For the same molecule, the IC50 in series [3] (setting [7]) was found to be 100 nM.
With `O=C(O)c1ccc2oc(-c3ccc(-c4ccccc4)cc3)cc(=O)c2c1` [FNDR-10137], the IC50 in series [3] (setting [7]) was 13200 nM.
Still for that read-out and setting: with `O=C(O)c1ccc2oc(-c3ccc(N4CCOCC4)cc3)cc(=O)c2c1` [FNDR-10138] the figure was 9650 nM.
As for `O=C(O)c1ccc2oc(-c3ccc(N4CCCCC4)cc3)cc(=O)c2c1` [FNDR-10139], the “Microsomal Stability (Mouse)” value in series [4] is listed as about 29.92 ± 5.46%. In addition, the IC50 in series [3] (setting [7]) is 4060 nM.
For `CCCCCCCCCCCc1cc(=O)c2c(O)c(O)c(O)cc2o1` [FNDR-10142], the IC50 in series [3] (setting [7]) was 400 nM.
Same read-out and setting: for `O=C(CCCc1ccccc1)NCc1cc(=O)c2c(O)c(O)c(O)cc2o1` [FNDR-10143] the value was 2480 nM.
On the same count and under the same terms, with `COc1cccc(CCC(=O)NCc2cc(=O)c3c(O)c(O)c(O)cc3o2)c1` [FNDR-10146] the figure was 2930 nM.
For `CCCCOc1ccc(C(=O)NCc2cc(=O)c3c(O)c(O)c(O)cc3o2)cc1` [FNDR-10148], the IC50 in series [3] is 920 nM; in series [3] (setting [7]), 900 nM.
`O=C(CCCCCc1ccccc1)NCc1cc(=O)c2c(O)c(O)c(O)cc2o1` [FNDR-10149]: the IC50 in series [3] (setting [7]) was 2740 nM.
Still for that read-out and setting: with `O=C(NCc1cc(=O)c2c(O)c(O)c(O)cc2o1)c1ccc2ccc(Br)cc2c1` [FNDR-10150] the figure was 1120 nM.
`O=C(O)c1ccc2oc(-c3ccc(C4CCCCC4)cc3)cc(=O)c2c1` [FNDR-10999]: the “Microsomal Stability (Mouse)” value in series [4] is on record as about 32.19 ± 0.29%. The IC50 is 10100 nM in series [3] and about 10000 nM in series [3] (setting [7]).
As for `CCCCOc1ccc(-c2cc(=O)c3cc(C(=O)O)ccc3o2)cc1` [FNDR-11000], the “antimalarial activity (in words)” value in series [3] is reported as “none of the compounds were active”. Besides, in series [3] (setting [7]), the IC50 was over 25000 nM.
For `CCN(CC)c1ccc(-c2cc(=O)c3cc(C(=O)O)ccc3o2)cc1` [FNDR-11001], the IC50 in series [3] was 10200 nM; in series [3] (setting [7]), about 10000 nM.
As to `O=C(O)c1ccc2c(=O)cc(-c3ccc(N4CCCCC4)cc3)oc2c1` [FNDR-11003], the “antimalarial activity (in words)” value in series [3] is “inactive”. Also, the IC50 in series [3] (setting [7]) was over 25000 nM.
For `CCCCCCc1ccc(-c2cc(=O)c3cc(C(=O)O)ccc3o2)cc1` [FNDR-11009], the IC50 in series [3] (setting [7]) was 10400 nM.
`O=C(O)c1ccc2c(=O)cc(-c3ccc(C4CCCCC4)cc3)oc2c1` [FNDR-11012]: the “antimalarial activity (in words)” value in series [3] is “inactive”. In addition, the IC50 in series [3] (setting [7]) was over 25000 nM.
The matching figures for `CCCCOc1ccc(-c2cc(=O)c3ccc(C(=O)O)cc3o2)cc1` [FNDR-11013]: “inactive” and over 25000 nM.
In the case of `CCN(CC)c1ccc(-c2cc(=O)c3ccc(C(=O)O)cc3o2)cc1` [FNDR-11014], in series [3], the “antimalarial activity (in words)” value was “inactive”. Also, in series [3] (setting [7]), the IC50 was over 25000 nM.
The matching figures for `CS(=O)(=O)CCCOc1ccc(-c2cc(=O)c3cc(C(=O)O)ccc3o2)cc1` [FNDR-11096]: “none of the compounds were active” and over 25000 nM.
In the case of `CC1(C)c2nc(-c3ccc(F)cc3)c(Nc3ccc(F)cc3)n2CCN1C(=O)CN` [GNF156, reference compound], the IC50 was 9.12 nM with Dd2 (wt) (Plasmodium falciparum) and 2160 nM in series [5] (Plasmodium falciparum, DD2). In addition, the figures for the “Fold shift IC50 rel. Dd2” value (with Dd2 (wt); in series [5] (strain Dd2 GNF156)) were 1.0 and 237, respectively.
As to `CS(=O)(=O)c1ccc(-c2cnc(N)c(-c3ccc(C(F)(F)F)nc3)c2)cc1` [MMV390048, reference compound], the IC50 in the series with Dd2 (wt) (Plasmodium falciparum) was determined as 18.5 nM; in series [6] (Plasmodium falciparum, DD2), 90.8 nM. For the same molecule, the “Fold shift IC50 rel. Dd2” value in the series on Dd2 (wt) amounted to 1.0; in series [6] (strain Dd2 390048), 4.9.
For `O=c1cc(-c2ccccc2)oc2cc(O)c(O)c(O)c12` [baicalein], the IC50 in series [3] (setting [7]) came out at 32000 nM.
